Results taken from ChEMBL document CHEMBL2311294, “Design, synthesis and bioevalution of novel benzamides derivatives as HDAC inhibitors” (Bioorg Med Chem Lett, 2013).

Key:
A549 [1] = experiment: cells; conditions: Homo sapiens, A549, 72 h
Description: Cytotoxicity against human A549 cells after 72 hrs by MTT assay

HCT-116 = experiment: cells; conditions: Homo sapiens, HCT-116, 72 h
Histone deacetylase 1 = Histone deacetylase 1 (Homo sapiens, UniProt Q13547); experiment: Inhibition of HDAC1 (unknown origin)
MCF7 [2] = experiment: cells; conditions: Homo sapiens, MCF7, 72 h
Description: Cytotoxicity against human MCF7 cells after 72 hrs by MTT assay

[3] = Terminal half life in Sprague-Dawley rat at 5 mg/kg, iv; format: ADME, organism-based; set-up: dose 5 mg/kg, route intravenous; conditions: in vivo, read-out: beta t1/2 (converted)
[4] = Terminal half life in Sprague-Dawley rat at 25 mg/kg, po; format: ADME, organism-based; set-up: dose 25 mg/kg, route oral; conditions: in vivo, read-out: beta t1/2 (converted)
[5] = Oral bioavailability in Sprague-Dawley rat at 25 mg/kg; format: ADME, organism-based; conditions: in vivo
MCF7 [6] = experiment: Ratio of MGCD0103 IC50 to compound IC50 for human MCF7 cells; format: functional
[7] = AUC infinity in Sprague-Dawley rat at 25 mg/kg, po; format: ADME, organism-based; set-up: time infinity, dose 25 mg/kg, route oral; conditions: plasma
[8] = Tmax in Sprague-Dawley rat at 25 mg/kg, po; format: ADME, organism-based; set-up: dose 25 mg/kg, route oral; conditions: in vivo
A549 [9] = experiment: Ratio of MGCD0103 IC50 to compound IC50 for human A549 cells; format: functional
[10] = AUClast in Sprague-Dawley rat at 25 mg/kg, po; conditions: plasma

Histone deacetylase 1, sequence (Q13547 whole entry): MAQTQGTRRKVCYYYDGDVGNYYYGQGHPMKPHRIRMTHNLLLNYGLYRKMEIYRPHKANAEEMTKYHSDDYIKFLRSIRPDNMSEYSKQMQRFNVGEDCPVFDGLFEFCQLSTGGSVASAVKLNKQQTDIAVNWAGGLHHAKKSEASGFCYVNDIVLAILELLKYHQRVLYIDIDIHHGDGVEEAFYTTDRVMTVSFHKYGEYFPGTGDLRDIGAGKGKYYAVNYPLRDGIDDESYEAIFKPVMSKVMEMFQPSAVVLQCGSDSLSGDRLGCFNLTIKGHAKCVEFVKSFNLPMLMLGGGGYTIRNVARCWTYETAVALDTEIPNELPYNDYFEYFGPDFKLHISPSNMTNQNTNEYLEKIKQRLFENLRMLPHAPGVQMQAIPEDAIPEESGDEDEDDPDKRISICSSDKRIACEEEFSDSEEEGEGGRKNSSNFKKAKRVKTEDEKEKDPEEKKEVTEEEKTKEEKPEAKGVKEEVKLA

SMILES | IC50 (A549 [1]) [nM] | IC50 (HCT-116) [nM] | IC50 (Histone deacetylase 1) [nM] | IC50 (MCF7 [2]) [nM] | half-life [3] [h] | half-life [4] [h] | bioavailability [5] [%] | AUC(0-inf) [7] [ng·h/mL] | Tmax [8] [min] | AUC(0-t) [10] [ng·h/mL] | Ratio IC50 (MCF7 [6]) | Ratio IC50 (A549 [9])
Nc1ccccc1NC(=O)c1ccc(CNc2nccc(-c3cnc4cnccn34)n2)cc1 | 509 | 214 | 110 | 2180 | – | – | – | – | – | – | – | –
Cc1nc2ncccn2c1-c1ccnc(NCc2ccc(C(=O)Nc3ccccc3N)cc2)n1 | 857 | 189 | 127 | 4110 | – | – | – | – | – | – | – | –
Cc1nc2cnccn2c1-c1ccnc(NCc2ccc(C(=O)Nc3ccccc3N)cc2)n1 | 694 | 264 | 97 | 3740 | – | – | – | – | – | – | – | –
Cc1nc2ccccn2c1-c1ccnc(NCCc2ccc(C(=O)Nc3ccccc3N)cc2)n1 | 851 | 304 | 131 | 4120 | – | – | – | – | – | – | – | –
Nc1ccccc1NC(=O)c1ccc(CCNc2nccc(-c3cnc4ncccn34)n2)cc1 | 724 | 256 | 154 | 1720 | – | – | – | – | – | – | – | –
Cc1nc2ccccn2c1-c1ccnc(NCc2ccc(C(=O)Nc3ccc(F)cc3N)cc2)n1 | 649 | 244 | 135 | 2400 | – | – | – | – | – | – | – | –
Cc1nc2ccc(Br)cn2c1-c1ccnc(NCc2ccc(C(=O)Nc3ccccc3N)cc2)n1 | 501 | 301 | 125 | 2360 | – | – | – | – | – | – | – | –

The next molecules have a lower IC50 (A549 [1]) than those just listed; values first:

IC50 (A549 [1]) [nM] | IC50 (HCT-116) [nM] | IC50 (Histone deacetylase 1) [nM] | IC50 (MCF7 [2]) [nM] | half-life [3] [h] | half-life [4] [h] | bioavailability [5] [%] | AUC(0-inf) [7] [ng·h/mL] | Tmax [8] [min] | AUC(0-t) [10] [ng·h/mL] | SMILES | Ratio IC50 (MCF7 [6]) | Ratio IC50 (A549 [9])
439 | 203 | 108 | 2090 | – | – | – | – | – | – | Cc1nc2ccccn2c1-c1ccnc(NCc2ccc(C(=O)Nc3ccccc3N)cc2)n1 | – | –
427 | 183 | 35 | 856 | – | – | – | – | – | – | Nc1ccccc1NC(=O)c1ccc(CNc2nccc(-c3cnc4ncccn34)n2)cc1 | – | –
176 | 270 | 97 | 1000 | – | – | – | – | – | – | Cc1nc2ccccn2c1-c1ccnc(NCc2ccc(C(=O)Nc3cc(F)ccc3N)cc2)n1 | – | –
110 | 82 | 53 | 661 | 1.73 | 4.58 | 81 | 72300 | 4.98 | 71900 | Nc1ccccc1NC(=O)c1ccc(CNc2nccc(-c3cnc4ccccn34)n2)cc1 | 7 | 11.6
